Assay results as given in PMC4222410, “Gold(I)-catalysed synthesis of a furan analogue of thiamine pyrophosphate” (Beilstein Journal of Organic Chemistry, 2014).

Biological target: T1, pyruvate decarboxylase (ZmPDC) (Zymomonas mobilis, UniProt P06672)
T1 construct: gene pdc; N-terminal His6-tag, pET28a, overexpressed in E. coli; tetramer (dimer of dimers)
Assay: coupled PDC/ADH assay (NADH, […] nm); time-course inactivation of apo-PDC and equilibrium competition with ThDP
Assay type: biochemical

T1 sequence (P06672 whole entry): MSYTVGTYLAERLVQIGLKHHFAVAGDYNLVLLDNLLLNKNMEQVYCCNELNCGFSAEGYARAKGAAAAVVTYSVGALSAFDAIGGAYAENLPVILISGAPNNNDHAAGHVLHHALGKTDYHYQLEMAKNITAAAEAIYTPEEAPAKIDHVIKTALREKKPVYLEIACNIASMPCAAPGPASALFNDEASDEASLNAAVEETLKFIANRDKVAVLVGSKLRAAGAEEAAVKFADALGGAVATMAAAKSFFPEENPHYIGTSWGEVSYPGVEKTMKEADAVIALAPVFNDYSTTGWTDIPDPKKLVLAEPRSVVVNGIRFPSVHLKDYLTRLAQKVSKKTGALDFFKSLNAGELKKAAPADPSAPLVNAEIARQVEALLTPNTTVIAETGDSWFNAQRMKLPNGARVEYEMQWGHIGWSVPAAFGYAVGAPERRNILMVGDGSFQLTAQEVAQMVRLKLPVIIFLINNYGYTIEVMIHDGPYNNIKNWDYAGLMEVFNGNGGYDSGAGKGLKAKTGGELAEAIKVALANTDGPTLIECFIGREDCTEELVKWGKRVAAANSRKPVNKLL

Cc1ncc(Cc2coc(CCOP(=O)(O)OP(=O)(O)O)c2)c(N)n1 [compound 17, furan analogue of ThDP]
Ki: 32.5 pM
